One data set has as its system HL-60. The data set can be described thus: HL-60 differentiation potency. The settings on record: Homo sapiens. In kind it is cell-based.
The nature of another data set: in vitro. The settings on record: human.

By EC50 is commonly meant the concentration that produces a half-maximal response. Lower therefore signals a more potent agent. A word on the IC50: it is the midpoint of a concentration-inhibition curve.

Molecules are shown by their SMILES.

In the case of `C[C@H]1[C@@H](OCc2ccc(C(=O)N[C@@H]3CCC[C@@H](C(=O)O)C3)cc2)O[C@@H]2O[C@@]3(C)CC[C@H]4[C@H](C)CC[C@@H]1[C@@]24OO3` [Compound 290, (1R,3R)-3-(4-((((3R,5aS,6R,8aS, 9R,10S,12R, 12aR)-3,6,9-trimethyldeca-hydro-12H-3,12-epoxy[1,2]dioxepino[4,3-i]isochromen-10-yl)oxy)methyl)benzamido) cyclohexane-1-carboxylic acid], the EC50 in the data set on HL-60 is 83.4 nM. In the data set “in vitro”, this molecule had an IC50 of 11.3 µM.

For `C[C@H]1[C@@H](OC[C@H]2CC[C@@H](C(=O)NC(C(=O)O)C3CCC3)CC2)O[C@@H]2O[C@@]3(C)CC[C@H]4[C@H](C)CC[C@@H]1[C@@]24OO3` (stereo partly drawn) [Compound 185, (S)-2-cyclobutyl-2-((1R,4R)-4-((((3R,5aS,6R,8aS, 9R,10S,12R, 12aR)-3,6,9-trimethyldeca-hydro-12H-3,12-epoxy[1,2]dioxepino[4,3-i]isochromen-10-yl)oxy)methyl)cyclohexane-1-carboxamido) acetic acid], in the data set with HL-60, a half-maximal response (EC50) required 50.2 nM. In the data set “in vitro”, the IC50 was more than 20 µM.

Consider `C[C@H]1[C@@H](Oc2ccc(OC3(C(=O)O)CC3)cc2)O[C@@H]2O[C@@]3(C)CC[C@H]4[C@H](C)CC[C@@H]1[C@@]24OO3` [Compound 268, 1-(4-(((3R,5aS,6R,8aS, 9R,10S,12R, 12aR)-3,6,9-trimethyldeca-hydro-12H-3,12-epoxy[1,2]dioxepino[4,3-i]isochromen-10-yl)oxy)phenoxy) cyclopropane-1-carboxylic acid], for which the EC50 in the data set on HL-60 worked out at 48.9 nM. For the same molecule, in “in vitro”, the IC50 was determined as 4.28 µM.

Regarding `C[C@H]1[C@@H](OC[C@H]2CC[C@@H](C(=O)NC34CCC(C(=O)O)(C3)C4)CC2)O[C@@H]2O[C@@]3(C)CC[C@H]4[C@H](C)CC[C@@H]1[C@@]24OO3` [Compound 295, 4-((1R,4s)-4-((((3R,5aS,6R,8aS, 9R,10S,12R, 12aR)-3,6,9-trimethyldeca-hydro-12H-3,12-epoxy[1,2]dioxepino[4,3-i]isochromen-10-yl)oxy)methyl)cyclohexane-1-carboxamido) bicyclo[2.1.1] hexane-1-carboxylic acid], a half-maximal effect with HL-60 (EC50) was put at 197 nM. In “in vitro”, this molecule showed an IC50 of more than 20 µM.

Molecule `C[C@H]1[C@@H](O[C@H]2CC[C@@H](C(=O)N[C@H](C(=O)O)C(C)(C)C)CC2)O[C@@H]2O[C@@]3(C)CC[C@H]4[C@H](C)CC[C@@H]1[C@@]24OO3` [Compound 229, (S)-3,3-dimethyl-2-((1R,4R)-4-(((3R,5aS,6R,8aS, 9R,10S,12R, 12aR)-3,6,9-trimethyldeca-hydro-12H-3,12-epoxy[1,2]dioxepino[4,3-i]isochromen-10-yl)oxy)cyclohexane-1-carboxamido) butanoic acid] gave an EC50 in the data set with HL-60 of 204 nM. Further, in “in vitro”, the IC50 was more than 20 µM.

As for `C[C@H]1[C@@H](Oc2ccc([C@H](N)C(=O)O)cc2)O[C@@H]2O[C@@]3(C)CC[C@H]4[C@H](C)CC[C@@H]1[C@@]24OO3` [Compound 194, (S)-2-amino-2-(4-(((3R,5aS,6R,8aS, 9R,10S,12R, 12aR)-3,6,9-trimethyldeca-hydro-12H-3,12-epoxy[1,2]dioxepino[4,3-i]isochromen-10-yl)oxy)phenyl) acetic acid], a half-maximal effect in the data set with HL-60 (EC50) was put at 17700 nM. The molecule further registered an IC50 in the data set “in vitro” of more than 20 µM.

In the data set on HL-60, `C[C@H]1[C@@H](OCC2CCC(C(=O)O)O2)O[C@@H]2O[C@@]3(C)CC[C@H]4[C@H](C)CC[C@@H]1[C@@]24OO3` (stereo partly drawn) [Compound 209, 5-((((3R,5aS,6R,8aS, 9R,10S,12R, 12aR)-3,6,9-trimethyldeca-hydro-12H-3,12-epoxy[1,2]dioxepino[4,3-i]isochromen-10-yl)oxy)methyl) tetrahydrofuran-2-carboxylic acid] came in with an EC50 of 15800 nM. In the data set “in vitro”, this molecule gave an IC50 of more than 20 µM.

On to `C[C@H]1[C@@H](OC[C@H]2CC[C@@H](C(=O)NCC3(C(=O)O)CCC3)CC2)O[C@@H]2O[C@@]3(C)CC[C@H]4[C@H](C)CC[C@@H]1[C@@]24OO3` [Compound 297, 1-(((1R,4s)-4-((((3R,5aS,6R,8aS, 9R,10S,12R, 12aR)-3,6,9-trimethyldeca-hydro-12H-3,12-epoxy[1,2]dioxepino[4,3-i]isochromen-10-yl)oxy)methyl)cyclohexane-1-carboxamido)methyl) cyclobutane-1-carboxylic acid], for which, in the data set with HL-60, the EC50 turned out to be 31.7 nM. Also, the midpoint of inhibition in “in vitro”, the IC50, lay at 17.7 µM.

Turning to `C[C@H]1[C@@H](OC/C=C/[C@]2(F)CC[C@H](C(=O)O)CC2)O[C@@H]2O[C@@]3(C)CC[C@H]4[C@H](C)CC[C@@H]1[C@@]24OO3` [Compound 271, (1S,4r)-4-fluoro-4-((E)-3-(((3R,5aS,6R,8aS, 9R,10S,12R, 12aR)-3,6,9-trimethyldeca-hydro-12H-3,12-epoxy[1,2]dioxepino[4,3-i]isochromen-10-yl)oxy)prop-1-en-1-yl) cyclohexane-1-carboxylic acid], in the data set on HL-60, a half-maximal effect (EC50) was put at 92.4 nM. This molecule returned an IC50 in “in vitro” of 19.1 µM.

Molecule `C[C@H]1[C@@H](O[C@H]2CC[C@@H](C(=O)N[C@H](C(=O)O)c3ccccc3)CC2)O[C@@H]2O[C@@]3(C)CC[C@H]4[C@H](C)CC[C@@H]1[C@@]24OO3` [Compound 189, (S)-2-phenyl-2-((1R,4R)-4-(((3R,5aS,6R,8aS, 9R,10S,12R, 12aR)-3,6,9-trimethyldeca-hydro-12H-3,12-epoxy[1,2]dioxepino[4,3-i]isochromen-10-yl)oxy)cyclo-hexane-1-carboxamido) acetic acid] had an EC50 in the data set on HL-60 of 1890 nM. Further, the IC50 in the data set “in vitro” turned out to be 15.2 µM.

For the molecule `C[C@@H]1CC[C@H]2[C@@H](C)[C@](OCc3ccc(C(=O)O)cc3Cl)(C(F)(F)F)O[C@@H]3O[C@@]4(C)CC[C@@H]1[C@]32OO4` [Compound 196], the EC50 in the data set on HL-60 was determined as 10.3 nM. Inhibition in “in vitro” was half-maximal at 0.03 µM (IC50).

`CO[C@]1(CO[C@H]2O[C@@H]3O[C@@]4(C)CC[C@H]5[C@H](C)CC[C@@H]([C@H]2C)[C@@]35OO4)CC[C@@H](C(=O)O)CC1` [Compound 199, (1S,4r)-4-methoxy-4-((((3R,5aS,6R,8aS, 9R,10S,12R, 12aR)-3,6,9-trimethyldeca-hydro-12H-3,12-epoxy[1,2]dioxepino[4,3-i]isochromen-10-yl)oxy)methyl) cyclohexane-1-carboxylic acid] showed a half-maximal effective concentration (EC50) with HL-60 of 6480 nM. Further, the IC50 in “in vitro” was more than 20 µM.

Regarding `C[C@H]1[C@@H](OCc2ccc(C(=O)NCC3(C(=O)O)CCC3)cc2)O[C@@H]2O[C@@]3(C)CC[C@H]4[C@H](C)CC[C@@H]1[C@@]24OO3` [Compound 286, 1-((4-((((3R,5aS,6R,8aS, 9R,10S,12R, 12aR)-3,6,9-trimethyldeca-hydro-12H-3,12-epoxy[1,2]dioxepino[4,3-i]isochromen-10-yl)oxy)methyl)benzamido)methyl) cyclobutane-1-carboxylic acid], the response in the data set with HL-60 was half-maximal at 18 nM (EC50). This molecule also had an IC50 in “in vitro” of 1.53 µM.

In the case of `CC(C)C(C(=O)O)c1ccc(O[C@H]2O[C@@H]3O[C@@]4(C)CC[C@H]5[C@H](C)CC[C@@H]([C@H]2C)[C@@]35OO4)c(F)c1` (stereo partly drawn) [Compound 266, 2-(3-fluoro-4-(((3R,5aS,6R,8aS, 9R,10S,12R, 12aR)-3,6,9-trimethyldeca-hydro-12H-3,12-epoxy[1,2]dioxepino[4,3-i]isochromen-10-yl)oxy)phenyl)-3-methylbutanoic acid], in the data set on HL-60, the half-maximal effective concentration (EC50) was 10.3 nM. In addition, inhibition in the data set “in vitro” was half-maximal at 0.06 µM (IC50).

Turning to `C[C@H]1[C@@H](OCC2(O)CCC(C(=O)O)CC2)O[C@@H]2O[C@@]3(C)CC[C@H]4[C@H](C)CC[C@@H]1[C@@]24OO3` (stereo partly drawn) [Compound 211, 4-hydroxy-4-((((3R,5aS,6R,8aS, 9R,10S,12R, 12aR)-3,6,9-trimethyldeca-hydro-12H-3,12-epoxy[1,2]dioxepino[4,3-i]isochromen-10-yl)oxy)methyl) cyclohexane-1-carboxylic acid], in the data set with HL-60, the EC50 stood at 11400 nM. This molecule yielded an IC50 in the data set “in vitro” of more than 20 µM.

`C[C@H]1[C@@H](OC[C@H]2CC[C@@H](C(=O)N[C@@H](CC(F)(F)F)C(=O)O)CC2)O[C@@H]2O[C@@]3(C)CC[C@H]4[C@H](C)CC[C@@H]1[C@@]24OO3` [Compound 256, (S)-4,4,4-trifluro-2-((1R,4R)-4-((((3R,5aS,6R,8aS, 9R,10S,12R, 12aR)-3,6,9-trimethyldeca-hydro-12H-3,12-epoxy[1,2]dioxepino[4,3-i]isochromen-10-yl)oxy)methyl)cyclohexane-1-carboxamido) butanoic acid] gave an EC50 with HL-60 of 3070 nM. In the data set “in vitro”, this molecule came in with an IC50 of 15.3 µM.

For `C[C@H]1[C@@H](OC[C@H]2CC[C@@H](C(=O)Nc3ccc(C(=O)O)cc3)CC2)O[C@@H]2O[C@@]3(C)CC[C@H]4[C@H](C)CC[C@@H]1[C@@]24OO3` [Compound 287, 4-((1R,4s)-4-((((3R,5aS,6R,8aS, 9R,10S,12R, 12aR)-3,6,9-trimethyldeca-hydro-12H-3,12-epoxy[1,2]dioxepino[4,3-i]isochromen-10-yl)oxy)methyl)cyclohexane-1-carboxamido) benzoic acid], the EC50 with HL-60 is 60.8 nM. Half-maximal inhibition in the data set “in vitro” (IC50) required 1 µM.

In turn, `C[C@H]1[C@@H](O[C@H]2CC[C@@H](C(=O)N[C@H]3C[C@@H](C(=O)O)C3)CC2)O[C@@H]2O[C@@]3(C)CC[C@H]4[C@H](C)CC[C@@H]1[C@@]24OO3` [Compound 228, (1S,3s)-3-((1R,4S)-4-(((3R,5aS,6R,8aS, 9R,10S,12R, 12aR)-3,6,9-trimethyldeca-hydro-12H-3,12-epoxy[1,2]dioxepino[4,3-i]isochromen-10-yl)oxy)cyclo-hexane-1-carboxamido) cyclobutane-1-carboxylic acid] displayed an EC50 in the data set with HL-60 of 9200 nM. The molecule also registered an IC50 in “in vitro” of more than 20 µM.

The molecule `C[C@H]1[C@@H](Oc2ccc(C3CC3C(=O)O)cc2)O[C@@H]2O[C@@]3(C)CC[C@H]4[C@H](C)CC[C@@H]1[C@@]24OO3` (stereo partly drawn) [Compound 192, 2-(4-(((3R,5aS,6R,8aS, 9R,10S,12R, 12aR)-3,6,9-trimethyldeca-hydro-12H-3,12-epoxy[1,2]dioxepino[4,3-i]isochromen-10-yl)oxy)phenyl) cyclopropane-1-carboxylic acid] came in with an EC50 in the data set with HL-60 of 67.2 nM. The same molecule gave an IC50 in “in vitro” of 3.5 µM.

The molecule `C[C@H]1[C@@H](Oc2ccc3cc(C(=O)O)ccc3c2)O[C@@H]2O[C@@]3(C)CC[C@H]4[C@H](C)CC[C@@H]1[C@@]24OO3` [Compound 214, 6-(((3R,5aS,6R,8aS, 9R,10S,12R, 12aR)-3,6,9-trimethyldeca-hydro-12H-3,12-epoxy[1,2]dioxepino[4,3-i]isochromen-10-yl)oxy)-2-naphthoic acid] returned a concentration for a half-maximal effect (EC50) in the data set with HL-60 of 53.7 nM. 0.22 µM corresponded to half-maximal inhibition in the data set “in vitro” (IC50).

The record behind these values is patent US20260242391A1 (priority 2023, published 2026).
